# Measurements reported in patent publication US11420958B2, “Aryl and heteroaryl substituted indole compounds” (BRISTOL-MYERS SQUIBB COMPANY, priority 2017, dated 2022).
# What was measured:
# Format in all cases: cell-based
# [1] = target: human TLR8 (Homo sapiens (Human), UniProt Q9NR97); experiment: TLR8 inhibition reporter assay (HEK-Blue, SEAP); conditions: HEK-Blue cells overexpressing human TLR8, R848 15.9 μM stimulation
# Method in brief: (§1)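 After 30 min room-temperature pre-incubation with compound (0.05 nM–50 μM), reporter HEK-Blue lines were activated by ODN2006 5 nM for TLR9, R848 15.9 μM for TLR8 or gardiquimod 7.5 μM for TLR7. SEAP detected after 22 h, 37 °C; inhibition scaled between agonist+DMSO wells and known-inhibitor control.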
# [2] = target: human TLR9 (Homo sapiens (Human), UniProt Q9NR96); experiment: TLR9 inhibition reporter assay (HEK-Blue, SEAP); conditions: HEK-Blue cells overexpressing human TLR9, ODN2006 5 nM stimulation
# Method in brief: as §1
# [3] = target: human TLR7 (Homo sapiens (Human), UniProt Q9NYK1); experiment: TLR7 inhibition reporter assay (HEK-Blue, SEAP); conditions: HEK-Blue cells overexpressing human TLR7, gardiquimod 7.5 μM stimulation
# Method in brief: as §1
# human TLR8, sequence (Q9NR97 27-1041): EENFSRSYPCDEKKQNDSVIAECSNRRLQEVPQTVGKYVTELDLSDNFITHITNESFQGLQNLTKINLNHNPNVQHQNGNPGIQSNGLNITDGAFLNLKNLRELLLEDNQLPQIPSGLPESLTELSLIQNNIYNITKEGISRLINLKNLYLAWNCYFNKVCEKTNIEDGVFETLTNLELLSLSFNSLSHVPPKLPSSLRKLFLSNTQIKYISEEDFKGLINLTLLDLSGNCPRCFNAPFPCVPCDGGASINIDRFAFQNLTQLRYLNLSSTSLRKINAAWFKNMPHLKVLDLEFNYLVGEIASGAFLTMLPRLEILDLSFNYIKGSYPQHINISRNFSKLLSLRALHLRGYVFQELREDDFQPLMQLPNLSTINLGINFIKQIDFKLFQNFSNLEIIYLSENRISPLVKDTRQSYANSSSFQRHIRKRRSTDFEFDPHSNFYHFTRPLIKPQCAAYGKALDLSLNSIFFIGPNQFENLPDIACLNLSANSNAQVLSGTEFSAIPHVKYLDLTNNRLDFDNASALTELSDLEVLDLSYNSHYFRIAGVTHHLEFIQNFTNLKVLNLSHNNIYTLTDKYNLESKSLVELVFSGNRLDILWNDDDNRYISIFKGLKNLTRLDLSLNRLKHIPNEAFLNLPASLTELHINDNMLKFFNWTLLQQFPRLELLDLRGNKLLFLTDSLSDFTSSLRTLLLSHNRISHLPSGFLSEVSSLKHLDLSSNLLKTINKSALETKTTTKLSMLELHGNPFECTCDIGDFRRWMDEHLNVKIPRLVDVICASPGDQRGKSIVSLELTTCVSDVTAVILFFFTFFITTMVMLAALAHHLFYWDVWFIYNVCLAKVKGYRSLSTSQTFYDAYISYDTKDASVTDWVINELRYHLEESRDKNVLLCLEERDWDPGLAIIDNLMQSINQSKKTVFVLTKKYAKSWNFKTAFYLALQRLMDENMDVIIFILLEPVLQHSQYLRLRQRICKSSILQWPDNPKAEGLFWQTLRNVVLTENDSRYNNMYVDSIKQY
# human TLR7, sequence (Q9NYK1 27-1049): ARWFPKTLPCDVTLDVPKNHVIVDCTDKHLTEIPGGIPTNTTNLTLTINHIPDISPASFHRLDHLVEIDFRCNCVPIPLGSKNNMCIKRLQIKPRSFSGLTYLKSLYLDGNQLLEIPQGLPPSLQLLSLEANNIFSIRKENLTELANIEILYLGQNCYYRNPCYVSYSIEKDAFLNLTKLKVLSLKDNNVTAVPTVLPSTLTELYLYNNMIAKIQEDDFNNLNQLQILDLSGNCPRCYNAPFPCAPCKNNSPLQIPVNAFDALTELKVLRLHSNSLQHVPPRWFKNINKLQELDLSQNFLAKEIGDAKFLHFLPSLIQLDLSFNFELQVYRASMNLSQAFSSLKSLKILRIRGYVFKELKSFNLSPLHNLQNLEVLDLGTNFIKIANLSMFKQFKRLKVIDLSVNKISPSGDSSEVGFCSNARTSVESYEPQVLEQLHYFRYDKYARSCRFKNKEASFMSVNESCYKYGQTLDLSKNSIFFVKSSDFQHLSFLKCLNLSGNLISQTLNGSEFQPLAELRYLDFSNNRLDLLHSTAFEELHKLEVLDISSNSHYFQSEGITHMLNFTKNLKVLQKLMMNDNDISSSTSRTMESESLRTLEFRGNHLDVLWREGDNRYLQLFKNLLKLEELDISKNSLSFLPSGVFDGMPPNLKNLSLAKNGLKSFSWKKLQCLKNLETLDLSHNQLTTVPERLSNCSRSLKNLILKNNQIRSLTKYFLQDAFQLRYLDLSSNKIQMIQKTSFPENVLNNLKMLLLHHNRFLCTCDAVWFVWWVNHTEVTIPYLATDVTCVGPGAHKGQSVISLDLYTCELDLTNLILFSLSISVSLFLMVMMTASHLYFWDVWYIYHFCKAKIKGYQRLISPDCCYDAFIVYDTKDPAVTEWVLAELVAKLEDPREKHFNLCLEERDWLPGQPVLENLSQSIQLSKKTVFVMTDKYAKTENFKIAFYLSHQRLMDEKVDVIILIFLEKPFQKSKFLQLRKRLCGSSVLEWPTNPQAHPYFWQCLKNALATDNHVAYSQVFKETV
# human TLR9, sequence (Q9NR96 26-1032): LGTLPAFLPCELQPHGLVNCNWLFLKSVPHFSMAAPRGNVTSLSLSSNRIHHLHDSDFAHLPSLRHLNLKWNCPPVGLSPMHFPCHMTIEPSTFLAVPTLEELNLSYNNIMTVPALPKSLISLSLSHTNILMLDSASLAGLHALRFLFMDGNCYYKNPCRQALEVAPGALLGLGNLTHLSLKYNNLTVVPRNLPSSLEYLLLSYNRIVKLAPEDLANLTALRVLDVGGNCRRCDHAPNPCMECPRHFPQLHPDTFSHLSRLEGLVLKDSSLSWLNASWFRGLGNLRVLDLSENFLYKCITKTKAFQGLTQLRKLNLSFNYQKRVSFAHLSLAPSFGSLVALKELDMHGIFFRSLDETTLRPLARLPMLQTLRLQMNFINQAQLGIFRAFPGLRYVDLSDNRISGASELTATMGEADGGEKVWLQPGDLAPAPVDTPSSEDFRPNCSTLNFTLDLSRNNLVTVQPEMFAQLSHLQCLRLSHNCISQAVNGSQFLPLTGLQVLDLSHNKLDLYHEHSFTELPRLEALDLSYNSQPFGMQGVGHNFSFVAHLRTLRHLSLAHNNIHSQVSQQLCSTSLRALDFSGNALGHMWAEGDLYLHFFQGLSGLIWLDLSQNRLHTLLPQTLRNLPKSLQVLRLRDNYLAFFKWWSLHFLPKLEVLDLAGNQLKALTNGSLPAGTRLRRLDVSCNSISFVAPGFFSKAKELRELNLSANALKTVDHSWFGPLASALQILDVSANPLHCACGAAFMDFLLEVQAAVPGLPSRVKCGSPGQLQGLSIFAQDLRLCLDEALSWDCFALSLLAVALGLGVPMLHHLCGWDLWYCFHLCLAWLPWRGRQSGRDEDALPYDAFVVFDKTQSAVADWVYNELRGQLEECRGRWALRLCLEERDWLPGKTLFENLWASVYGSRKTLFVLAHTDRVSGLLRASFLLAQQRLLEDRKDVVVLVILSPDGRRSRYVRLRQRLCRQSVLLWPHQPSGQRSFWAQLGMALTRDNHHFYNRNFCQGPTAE
Compound,IC50 [1] [µM],IC50 [2] [µM],IC50 [3] [µM]
"Cc1cc(-c2[nH]c3ccc(-c4cc5c(s4)CN(CC(=O)N(C)C)CC5)cc3c2C(C)C)ccn1 [Example 311, 2-(2-(3-isopropyl-2-(2-methylpyridin-4-yl)-1H-indol-5-yl)-4,7-dihydrothieno[2,3-c]pyridin-6(5H)-yl)-N,N-dimethylacetamide]",0.024,3.35,0.146
"Cc1cc(-c2[nH]c3ccc(-c4ccnc(N5CCN(C)CC5)c4)cc3c2C(C)C)cc(C)n1 [Example 319, 2-(2,6-dimethylpyridin-4-yl)-3-isopropyl-5-(2-(4-methylpiperazin-1-yl)pyridin-4-yl)-1H-indole]",0.0097,0.517,0.0071
"CNCC(=O)Nc1cnc(-c2ccc3[nH]c(-c4cc(C)nc(C)c4)c(C(C)C)c3c2)cn1 [Example 356, N-(5-(2-(2,6-dimethylpyridin-4-yl)-3-isopropyl-1H-indol-5-yl)pyrazin-2-yl)-2-(methylamino)acetamide]",0.0046,0.952,0.01
"Cc1cc(-c2[nH]c3ccc(-c4nc(C(=O)NC5CCCNC5)co4)cc3c2C(C)C)cc(C)n1 (stereo not drawn) [Example 290, 2-(2-(2,6-dimethylpyridin-4-yl)-3-isopropyl-1H-indol-5-yl)-N-(piperidin-3-yl)oxazole-4-carboxamide]",0.017,3.39,0.038
"Cc1cc(-c2[nH]c3ccc(-c4nnc(C5CCCN(C(C)C)C5)o4)cc3c2CC(F)F)cc(C)n1 (stereo not drawn) [Example 327, 2-(3-(2,2-difluoroethyl)-2-(2,6-dimethylpyridin-4-yl)-1H-indol-5-yl)-5-(1-isopropylpiperidin-3-yl)-1,3,4-oxadiazole]",0.01,0.216,0.026
"CCc1c(-c2ccnc(C)c2)[nH]c2ccc(-c3noc(C4CNC4)n3)cc12 [Example 458, 5-(azetidin-3-yl)-3-(3-ethyl-2-(2-methylpyridin-4-yl)-1H-indol-5-yl)-1,2,4-oxadiazole]",0.037,1.05,0.163
"CNC(=O)CN1CCC(c2nnc(-c3ccc4[nH]c(-c5ccnc6[nH]ncc56)c(C(C)C)c4c3)o2)CC1 [Example 88, 2-(4-(5-(3-isopropyl-2-(1H-pyrazolo[3,4-b]pyridin-4-yl)-1H-indol-5-yl)-1,3,4-oxadiazol-2-yl)piperidin-1-yl)-N-methylacetamide]",0.01,4.76,0.294
"CC(C)c1c(-c2ccnc3[nH]ncc23)[nH]c2ccc(-c3ccnc4[nH]ncc34)cc12 [Example 177, 4,4′-(3-isopropyl-1H-indole-2,5-diyl)bis(1H-pyrazolo[3,4-b]pyridine)]",0.0037,24.1,0.045
"CCc1c(-c2ccc(OC)c(OC)c2)[nH]c2ccc(-c3noc(C4CCN(Cc5ccccc5)CC4)n3)cc12 [Example 444, 5-(1-benzylpiperidin-4-yl)-3-(2-(3,4-dimethoxyphenyl)-3-ethyl-1H-indol-5-yl)-1,2,4-oxadiazole]",0.443,11.2,3.13
"CC(C)c1c(-c2ccnc3[nH]ncc23)[nH]c2ccc(-c3cccc(S(N)(=O)=O)c3)cc12 [Example 415, 3-(3-isopropyl-2-(1H-pyrazolo[3,4-b]pyridin-4-yl)-1H-indol-5-yl)benzenesulfonamide]",0.056,> 50,0.82
"Cc1cc(-c2[nH]c3ccc(-c4nc(C(=O)NCC5CCNC5)c(C)o4)cc3c2C(C)C)ccn1 (stereo not drawn) [Example 194, 2-(3-isopropyl-2-(2-methylpyridin-4-yl)-1H-indol-5-yl)-5-methyl-N-(pyrrolidin-3-ylmethyl)oxazole-4-carboxamide]",0.086,11.7,0.112
"Cc1cc(-c2[nH]c3ccc(-c4ccnc(N5CCN(C(C)C)CC5)c4)cc3c2C(C)C)cc(C)n1 [Example 326, 2-(2,6-dimethylpyridin-4-yl)-3-isopropyl-5-(2-(4-isopropylpiperazin-1-yl)pyridin-4-yl)-1H-indole]",0.013,0.303,0.023
"Cc1cc(-c2[nH]c3ccc(-c4csc(N5CCCCC5)n4)cc3c2C(C)C)cc(C)n1 [Example 350, 4-(2-(2,6-dimethylpyridin-4-yl)-3-isopropyl-1H-indol-5-yl)-2-(piperidin-1-yl)thiazole]",0.685,> 50,0.742
"Cc1cc(-c2[nH]c3ccc(-c4nc(C(=O)NC5CCN(C(C)C)CC5)co4)cc3c2C(C)C)ccn1 [Example 173, 2-(3-isopropyl-2-(2-methylpyridin-4-yl)-1H-indol-5-yl)-N-(1-isopropylpiperidin-4-yl)oxazole-4-carboxamide]",0.0029,1.84,0.046

# The remaining lines, values ahead:
IC50 [1] [µM],IC50 [2] [µM],IC50 [3] [µM],Compound
0.734,> 50,0.917,"C#CCNCc1nnc(-c2ccc3[nH]c(-c4ccc(OC)c(OC)c4)c(C(C)C)c3c2)o1 [Example 110, N-((5-(2-(3,4-dimethoxyphenyl)-3-isopropyl-1H-indol-5-yl)-1,3,4-oxadiazol-2-yl)methyl)prop-2-yn-1-amine]"
0.029,1.81,0.114,"COc1ccc(-c2[nH]c3ccc(-c4cccc(C(=O)NC5CCN(C(C)C)CC5)c4)cc3c2C(C)C)cc1OC [Example 8, 3-(2-(3,4-dimethoxyphenyl)-3-isopropyl-1H-indol-5-yl)-N-(1-isopropylpiperidin-4-yl)benzamide]"
0.038,> 50,0.44,"COc1ccc(-c2[nH]c3ccc(-c4ccc(CN5CCOCC5)cc4)cc3c2C(C)C)cc1OC [Example 413, 4-(4-(2-(3,4-dimethoxyphenyl)-3-isopropyl-1H-indol-5-yl)benzyl)morpholine]"
0.006,0.283,0.194,"Cc1cc(-c2[nH]c3ccc(-c4nnc(C(=O)N5CC6CNCC6C5)o4)cc3c2C(C)C)ccn1 (stereo not drawn) [Example 60, (hexahydropyrrolo[3,4-c]pyrrol-2(1H)-yl)(5-(3-isopropyl-2-(2-methylpyridin-4-yl)-1H-indol-5-yl)-1,3,4-oxadiazol-2-yl)methanone]"
0.016,> 50,0.154,"COc1ccc(-c2[nH]c3ccc(-c4nnc(Cc5c[nH]cn5)o4)cc3c2C(C)C)cc1OC [Example 45, 2-((1H-imidazol-4-yl)methyl)-5-(2-(3,4-dimethoxyphenyl)-3-isopropyl-1H-indol-5-yl)-1,3,4-oxadiazole]"
0.038,9.68,0.246,"CNCCNc1ccc(-c2ccc3[nH]c(-c4ccc(OC)c(OC)c4)c(C(C)C)c3c2)cc1 [Example 404, N1-(4-(2-(3,4-dimethoxyphenyl)-3-isopropyl-1H-indol-5-yl)phenyl)-N2-methylethane-1,2-diamine]"
0.009,0.979,0.078,"COc1ccc(-c2[nH]c3ccc(-c4nnc(C5CCN(C(C)C)CC5)o4)cc3c2C(C)C)cc1OC [Example 4, 2-(3,4-dimethoxyphenyl)-3-(propan-2-yl)-5-{5-[1-(propan-2-yl)piperidin-4-yl]-1,3,4-oxadiazol-2-yl}-1H-indole]"
0.212,> 50,1.41,"CC(C)c1c(-c2ccnc3[nH]ncc23)[nH]c2ccc(-c3nnc(CN4CCNC(=O)C4)o3)cc12 [Example 156, 4-((5-(3-isopropyl-2-(1H-pyrazolo[3,4-b]pyridin-4-yl)-1H-indol-5-yl)-1,3,4-oxadiazol-2-yl)methyl)piperazin-2-one]"
0.0093,0.343,0.019,"Cc1cc(-c2[nH]c3ccc(-c4nnc(C(=O)N5CCC(N)CC5)o4)cc3c2C(C)C)cc(C)n1 [Example 230, (4-aminopiperidin-1-yl)(5-(2-(2,6-dimethylpyridin-4-yl)-3-isopropyl-1H-indol-5-yl)-1,3,4-oxadiazol-2-yl)methanone]"
0.023,2.21,0.228,"COc1ccc(-c2[nH]c3ccc(-c4nnc(CN5CC6CNCC6C5)o4)cc3c2C(C)C)cc1OC (stereo not drawn) [Example 107, 2-(2-(3,4-dimethoxyphenyl)-3-isopropyl-1H-indol-5-yl)-5-((hexahydropyrrolo[3,4-c]pyrrol-2(1H)-yl)methyl)-1,3,4-oxadiazole]"
0.054,45.2,0.124,"COc1cc(-c2ccc3[nH]c(-c4ccnc5[nH]ncc45)c(C(C)C)c3c2)cnc1OC [Example 434, 4-(5-(5,6-dimethoxypyridin-3-yl)-3-isopropyl-1H-indol-2-yl)-1H-pyrazolo[3,4-b]pyridine]"
0.0028,0.523,0.028,"Cc1cc(-c2[nH]c3ccc(-c4nnc([C@@H]5CCNC5)o4)cc3c2C(C)C)ccn1 [Example 139, (R)-2-(3-isopropyl-2-(2-methylpyridin-4-yl)-1H-indol-5-yl)-5-(pyrrolidin-3-yl)-1,3,4-oxadiazole]"
0.003,0.651,0.015,"Cc1cc(-c2[nH]c3ccc(-c4nnc([C@H]5CCNC5)o4)cc3c2C(C)C)ccn1 [Example 146, (S)-2-(3-isopropyl-2-(2-methylpyridin-4-yl)-1H-indol-5-yl)-5-(pyrrolidin-3-yl)-1,3,4-oxadiazole]"
0.037,0.488,0.033,"Cc1cc(-c2[nH]c3ccc(-c4nc(C(=O)NCCCN)co4)cc3c2C(C)C)cc(C)n1 [Example 278, N-(3-aminopropyl)-2-(2-(2,6-dimethylpyridin-4-yl)-3-isopropyl-1H-indol-5-yl)oxazole-4-carboxamide]"
